ChEMBL document CHEMBL1157597, “Exploring a synthetic organoselenium compound for antioxidant pharmacotherapy--toxicity and effects on ROS-production” (Bioorg Med Chem, 2010)
Activity calls are given as the source filed them. The calls are words filed in the database; no cut-off is given here.

How the values were obtained:
[1] = Antioxidant activity against ABTS radicals assessed as trolox equivalents in phosphate buffer of pH 7.4 at 6.08 uM by ABTS assay; assay type: functional
[2] = system: HEK293; assay: Cytotoxicity against HEK293 cells assessed as cell death at 60 uM after 7 days by LDH assay; assay type: cell-based; conditions: human, hek293, 168 h
[3] = system: Caco-2; assay: Cytotoxicity against human Caco-2 cells assessed as plasma membrane damage at 60 uM after 7 days by LDH assay; assay type: cell-based; conditions: caco-2, 168 h
[4] = Cytotoxicity against human MG63 cells assessed as cell death at 60 uM after 7 days by LDH assay; assay type: cell-based; conditions: mg-63, 168 h
[5] = system: MRC5; assay: Cytotoxicity against human MRC5 cells assessed as cell death at 60 uM after 7 days by LDH assay; assay type: cell-based; conditions: mrc5, 168 h
[6] = Cytotoxicity against human MG63 cells assessed as plasma membrane damage at 60 uM after 7 days by LDH assay; assay type: cell-based; conditions: mg-63, 168 h
[7] = system: SH-SY5Y; assay: Cytotoxicity against human SH-SY5Y cells assessed as cell death at 60 uM after 7 days by LDH assay; assay type: cell-based; conditions: 168 h
[8] = system: SH-SY5Y; assay: Cytotoxicity against human SH-SY5Y cells assessed as plasma membrane damage at 60 uM after 7 days by LDH assay; assay type: cell-based; conditions: 168 h
[9] = system: MRC5; assay: Cytotoxicity against human MRC5 cells assessed as plasma membrane damage at 60 uM after 7 days by LDH assay; assay type: cell-based; conditions: mrc5, 168 h
[10] = system: HEK293; assay: Cytotoxicity against HEK293 cells assessed as plasma membrane damage at 60 uM after 7 days by LDH assay; assay type: cell-based; conditions: human, hek293, 168 h
[11] = system: Caco-2; assay: Cytotoxicity against human Caco-2 cells assessed as cell death at 60 uM after 7 days by LDH assay; assay type: cell-based; conditions: caco-2, 168 h
[12] = system: MRC5; assay: Cytotoxicity against human MRC5 cells assessed as decrease in proliferation up to 200 uM after 7 days by alamar blue assay; assay type: cell-based; conditions: mrc5, 168 h
[13] = system: THP-1; assay: Antioxidant activity against ROS-production in PMA-stimulated human THP1 cells by chemiluminescence; assay type: cell-based
[14] = (§1) Antioxidant activity against ROS-production in human neutrophils by chemiluminescence; assay type: functional, cell-based; conditions: Neutrophil
[15] = system: Neutrophil; assay: as §1; assay type: functional, cell-based
[16] = system: HEK293; assay: Cytotoxicity against HEK293 cells assessed as decrease in proliferation up to 200 uM after 7 days by alamar blue assay; assay type: cell-based; conditions: human, hek293, 168 h
[17] = system: SH-SY5Y; assay: Cytotoxicity against human SH-SY5Y cells assessed as decrease in proliferation up to 200 uM after 7 days by alamar blue assay; assay type: cell-based; conditions: 168 h
[18] = system: Caco-2; assay: Cytotoxicity against human Caco-2 cells assessed as decrease in proliferation up to 200 uM after 7 days by alamar blue assay; assay type: cell-based; conditions: caco-2, 168 h
[19] = Cytotoxicity against human MG63 cells assessed as decrease in proliferation up to 200 uM after 7 days by alamar blue assay; assay type: cell-based; conditions: mg-63, 168 h

Row | Compound | Activity [1] | Activity [2] | Activity [3] | Activity [4] | Activity [5] | Activity [6] | Activity [7] | Activity [8] | Activity [9] | Activity [10] | Activity [11] | Activity [12] | Activity [13] | IC50 [14] [nM] | Activity [15] | Activity [16] | Activity [17] | Activity [18] | Activity [19]
1 | CC(=O)N[C@@H](CS)C(=O)O | 2.4 | – | – | – | – | – | – | – | – | – | – | – | – | – | – | – | – | – | –
2 | Cc1c(C)c2c(c(C)c1O)CCC(C)(C(=O)O)O2 (stereo unspecified) [TROLOX] | – | Non-toxic | Non-toxic | Non-toxic | Non-toxic | Non-toxic | Non-toxic | Non-toxic | Non-toxic | Non-toxic | Non-toxic | – | – | – | – | – | – | – | –
3 | O=C1O[C@H]([C@@H](O)CO)C([O-])=C1O.[Na+] | Active | – | – | – | – | – | – | – | – | – | – | – | – | – | – | – | – | – | –
4 | CC1Cc2cc(O)ccc2[Se]1 (stereo unspecified) | Active | Non-toxic | Non-toxic | Non-toxic | Non-toxic | Non-toxic | Non-toxic | Non-toxic | Non-toxic | Non-toxic | Non-toxic | Non-toxic | Dose-dependent effect | 1000 | Dose-dependent effect | Non-toxic | Non-toxic | Non-toxic | Non-toxic
